According to PMC5050400 (Current Neuropharmacology, 2016):
Where a chain is given by its changes, count along the chain named. Several values for one entry are separate records, joined by “and”; a condition that tells them apart may be missing. Identical values can stand only once. Like-named read-outs stand apart in the source and are kept apart here.

How the values were obtained:
[1] = system: β3(Y143W) receptor; settings: β3(Y143W) homomeric receptor compared with wild-type; cited from earlier work
[2] = system: α1β2γ2L GABAA receptors; settings: compared with propofol; cited from earlier work
[3] = target: T1, α1β3(M286W+F221W) GABAA receptor (Homo sapiens, UniProt P14867+P28472, F246W/M311W); experiment: Two-electrode voltage clamp activation of α1β3; type: cell-based; settings: for Po,max^est / nH / d: α1β3(M286W+F221W); for d: KO/KC, MWC fit
T1 sequence (P28472 26-473 F246W/M311W): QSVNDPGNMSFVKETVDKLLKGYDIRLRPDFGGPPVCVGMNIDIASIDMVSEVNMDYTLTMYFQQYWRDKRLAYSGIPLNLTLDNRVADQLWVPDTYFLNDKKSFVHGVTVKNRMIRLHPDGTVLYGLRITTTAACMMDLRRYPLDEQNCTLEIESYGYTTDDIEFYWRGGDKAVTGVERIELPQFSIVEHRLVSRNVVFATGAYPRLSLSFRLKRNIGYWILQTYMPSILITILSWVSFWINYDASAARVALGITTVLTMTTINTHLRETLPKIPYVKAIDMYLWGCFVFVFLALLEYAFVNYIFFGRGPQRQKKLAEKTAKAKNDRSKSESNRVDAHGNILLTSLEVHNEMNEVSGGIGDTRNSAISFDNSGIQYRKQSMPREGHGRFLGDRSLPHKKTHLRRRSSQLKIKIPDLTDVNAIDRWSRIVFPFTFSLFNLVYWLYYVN
T1 sequence (P14867 28-456): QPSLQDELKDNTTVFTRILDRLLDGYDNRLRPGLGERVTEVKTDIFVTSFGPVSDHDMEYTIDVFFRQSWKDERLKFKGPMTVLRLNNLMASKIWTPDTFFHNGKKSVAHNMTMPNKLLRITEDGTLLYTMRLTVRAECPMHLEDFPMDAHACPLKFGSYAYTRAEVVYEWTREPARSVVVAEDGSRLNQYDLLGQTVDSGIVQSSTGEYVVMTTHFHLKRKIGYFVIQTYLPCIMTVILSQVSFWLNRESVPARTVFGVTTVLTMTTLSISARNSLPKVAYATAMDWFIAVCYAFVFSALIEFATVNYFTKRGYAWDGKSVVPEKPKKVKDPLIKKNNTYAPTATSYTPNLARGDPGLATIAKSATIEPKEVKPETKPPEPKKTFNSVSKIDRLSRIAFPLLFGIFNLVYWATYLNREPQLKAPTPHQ

[4] = target: T2, α1β3 GABAA receptor (Homo sapiens, UniProt P14867+P28472); type: cell-based; settings: for d / Po,max^est / nH: wild-type α1β3; for d: KO/KC, gating efficacy, MWC fit, n = 5 for propofol, 2 for GABA; for Po,max^est: estimated maximal open probability at saturating agonist; for nH: slope of concentration-response curve
T2 sequence (P28472 26-473): T1 sequence (P28472 26-473 F246W/M311W) with W221F, W286M
T2 sequence (P14867 28-456): T1 sequence (P14867 28-456)

[5] = target: T3, α1β3(Y143W) GABAA receptor (Homo sapiens, UniProt P14867+P28472, Y168W); experiment: Two-electrode voltage clamp activation of α1β3; type: cell-based; settings: for Po,max^est / nH / d: α1β3(Y143W); for d: KO/KC, MWC fit
T3 sequence (P28472 26-473 Y168W): T1 sequence (P28472 26-473 F246W/M311W) with Y143W, W221F, W286M
T3 sequence (P14867 28-456): T1 sequence (P14867 28-456)

[6] = target: T4, α1β3(Q224W) GABAA receptor (Homo sapiens, UniProt P14867+P28472, Q249W); experiment: Two-electrode voltage clamp activation of α1β3; type: cell-based; settings: for Po,max^est / nH / d: α1β3(Q224W); for d: KO/KC, MWC fit
T4 sequence (P28472 26-473 Q249W): T1 sequence (P28472 26-473 F246W/M311W) with W221F, Q224W, W286M
T4 sequence (P14867 28-456): T1 sequence (P14867 28-456)

[7] = target: T5, α1β3(F221W) GABAA receptor (Homo sapiens, UniProt P14867+P28472, F246W); experiment: Two-electrode voltage clamp activation of α1β3; type: cell-based; settings: for Po,max^est / nH / d: α1β3(F221W); for d: KO/KC, MWC fit
T5 sequence (P28472 26-473 F246W): T1 sequence (P28472 26-473 F246W/M311W) with W286M
T5 sequence (P14867 28-456): T1 sequence (P14867 28-456)

[8] = target: T6, α1β3(M286W+Q224W) GABAA receptor (Homo sapiens, UniProt P14867+P28472, M311W/Q249W); experiment: cell-based
T6 sequence (P28472 26-473 Q249W/M311W): T1 sequence (P28472 26-473 F246W/M311W) with W221F, Q224W
T6 sequence (P14867 28-456): T1 sequence (P14867 28-456)

[9] = target: T7, α1β3(M286W) GABAA receptor (Homo sapiens, UniProt P14867+P28472, M311W); experiment: Two-electrode voltage clamp activation of α1β3; type: cell-based; settings: for Po,max^est / nH / d: α1β3(M286W); for d: KO/KC, MWC fit
T7 sequence (P28472 26-473 M311W): T1 sequence (P28472 26-473 F246W/M311W) with W221F
T7 sequence (P14867 28-456): T1 sequence (P14867 28-456)

[10] = target: T8, α1β3(M286W+Y143W) GABAA receptor (Homo sapiens, UniProt P14867+P28472, M311W/Y168W); experiment: Two-electrode voltage clamp activation of α1β3; type: cell-based; settings: for Po,max^est / nH / d: α1β3(M286W+Y143W); for d: KO/KC, MWC fit
T8 sequence (P28472 26-473 Y168W/M311W): T1 sequence (P28472 26-473 F246W/M311W) with Y143W, W221F
T8 sequence (P14867 28-456): T1 sequence (P14867 28-456)

| Structure (SMILES) | activation of the mutant receptor [1] | Po,max^est [3] | nH [3] | d [3] | d [4] | Po,max^est [4] | nH [4] | Po,max^est [5] | nH [5] | d [5] | Po,max^est [6] | nH [6] | d [6] | Po,max^est [7] | nH [7] | d [7] | Po,max^est [9] | nH [9] | d [9] | Po,max^est [10] | also measured |
| --- | --- | --- | --- | --- | --- | --- | --- | --- | --- | --- | --- | --- | --- | --- | --- | --- | --- | --- | --- | --- | --- |
| CC(C)c1ccccc1O [2-isopropylphenol] | unchanged | – | – | – | – | – | – | – | – | – | – | – | – | – | – | – | – | – | – | – | – |
| CC(C)c1ccc(C2(C(F)(F)F)N=N2)cc1O [meta-azipropofol, 2-isopropyl-5-[3-(trifluoromethyl)-3H-diazirin-3-yl]phenol] | – | – | – | – | – | – | – | – | – | – | – | – | – | – | – | – | – | – | – | – | degree of potentiation [2]: somewhat smaller degree of potentiation |
| NCCCC(=O)O [GABA, γ-aminobutyric acid] | – | 1 | 1.1±0.1 | 0.07±0.05 | 0.02±0.001 | 0.65±0.04 | 1.5±0.1 | 1 | 1.7±0.1 | 0.02±0.001 | 0.24±0.03 | 1.0±0.1 | 0.06±0.01 | 1 | 1.5±0.1 | 0.03±0.02 | 0.94±0.01 | 1.8±0.2 | 0.005±0.002 | 0.96±0.09 | Po,max^est ([8]; α1β3(M286W+Q224W)): 0.87±0.02; nH ([8]; α1β3(M286W+Q224W)): 1.1±0.1; d ([8]; α1β3(M286W+Q224W), KO/KC, MWC fit): 0.04±0.004; nH [10]: 0.8±0.1; d [10]: 0.08±0.05 |
| Cc1cccc(C)c1O [2,6-dimethylphenol] | unchanged | – | – | – | – | – | – | – | – | – | – | – | – | – | – | – | – | – | – | – | – |
| CC(C)c1cccc(C(C)C)c1O [Propofol, 2,6-diisopropylphenol] | – | 0.60±0.04 | 1.1±0.1 | 0.84±0.01 | 0.24±0.01 | 0.50±0.02 | 1.7±0.3 | 1 | 1.6±0.1 | 0.27±0.03 | 1 | 2.9±0.6 | 0.04±0.05 | 1 | 1.9±0.3 | 0.23±0.01 | 0.33±0.04 | 2.8±0.3 | 0.27±0.01 | 0.64±0.02 | EC50 [3]: 6.6 ± 0.8 µM; Kd [3]: 5.7 ± 1.6 µM; EC50 ([4]; EC50, wild-type α1β3, direct activation, mean ± S.E.M., at least 4 cells): 13 µM and 12.5 µM; EC50 [5]: 12.8 ± 2.9 µM; Kd [5]: 23 ± 6 µM; EC50 [6]: 50 ± 2 µM; Kd [6]: 336 ± 435 µM; EC50 [7]: 5 ± 0.5 µM; Kd [7]: 13.1 ± 1.5 µM; EC50 [8]: 69 ± 9 µM; Kd [8]: 61 ± 14 µM; Po,max^est [8]: 0.11±0.01; d [8]: 0.58±0.01; nH [8]: 1.9±0.1; EC50 [9]: 14 ± 0.7 µM; Kd [9]: 6 ± 1.4 µM; EC50 [10]: 1.6 ± 0.2 µM; Kd [10]: 1.4 ± 0.3 µM; nH [10]: 1.5±0.2; d [10]: 0.93±0.01 |
